From patent US5164185A, “Pharmaceutical and cosmetic depigmentation compositions with a caffeic acid base” (priority 1989, dated 1992)

Experiments:
[1] = tested on: fungus-derived tyrosinase; assay: in vitro tyrosinase inhibition, dopachrome formation by visible spectrophotometry (475 nm); format: biochemical; settings: in words
Description: The efficacy of the various combination according to the invention have been studied in vitro by measuring out, using visible spectrophotometry (475 nm), the quantity of dopachrome formed during the chain of tyrosine-oxidation reactions. These oxidation reactions are catalyzed in vitro using fungus-derived tyrosinase in the presence of a co-substrate (for example, a small quantity of L-dopa) in order to trigger the hydroxylation reaction of L-tyrosine into L-dopa, this latter being then oxidized by catalysis into dopaquinone, then into dopachrome, an intermediate product formed before the non-enzymatic oxidation reactions leading to melanin formation.
Accordingly, the concentration of dopachrome formed over time is monitored in the presence of various inhibitors of tyrosinasic activity.
The concentrations of inhibitors are expressed as molar percents in relation to the concentration of tyrosine present in the reactive medium.
The inhibitory effect may be expressed, in relation to the control curve (absence of inhibitor) by lowering of the quantity of dopachrome formed and/or by a slowing of dopachrome-formation kinetics. […]

melanin biosynthesis = assay: depigmenting action (studies on substances used singly or in combination); settings: in words
Description: In these latter, at least one of the active ingredients may be liposomes.

melanocytes = settings: in words, prior art; cited from earlier work

O=C(O)/C=C/c1ccc(O)c(O)c1 [caffeic acid]
inhibition of tyrosinasic activity leading to limited formation of dopachrome [1]: inhibition of tyrosinasic activity
depigmenting action (melanin biosynthesis): especially interesting depigmenting action

Oc1ccc(O)cc1 [hydroquinone]
irritation and cytotoxicity for melanocytes (melanocytes): especially irritating and cytotoxic for melanocytes
